pIC50: −log10 of the molar value. Counter-ions that a name gives are not always drawn.
Tested on: MT4
Test: Potency against […] nucleoside reverse transcriptor was determined in MT-4 cells
Format: functional, cell-based
Conditions: Homo sapiens

| SMILES | pIC50 |
| --- | --- |
| O=C1Nc2ccc(Cl)cc2[C@@](C#CC2CC2)(C(F)(F)F)O1 [EFAVIRENZ] | 7.40 |
| S=C(NCCc1ccccn1)Nc1ccc(Br)cn1 [TROVIRDINE HYDROCHLORIDE] | 6.10 |
| Cc1cn([C@H]2C[C@H](N=[N+]=[N-])[C@@H](CO)O2)c(=O)[nH]c1=O [ZIDOVUDINE] | 7.40 |
| CCOC(=O)c1cccn1S(=O)(=O)c1cc(Cl)ccc1N | 6.40 |
| Nc1[nH]cnc2ncnc1-2 [ADENINE] | 4.92 |
| Cc1ncc([N+](=O)[O-])n1CCOC(c1ccccc1)c1ccccc1 | 7.30 |
| Nc1ccn([C@H]2CC[C@@H](CO)O2)c(=O)n1 [ZALCITABINE] | 5.80 |
| Cc1ccnc2c1NC(=O)c1cccnc1N2C1CC1 [NEVIRAPINE] | 6.22 |

— ChEMBL document CHEMBL1146751, “Threshold interaction energy of NRTI's (2'-deoxy 3'-substituted nucleosidic analogs of reverse transcriptase inhibitors) to undergo competitive inhibition” (Bioorg Med Chem Lett, 2004)
